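Compound exposure: 48 hours, 5 concentrations, 96-well plates. Definition used: TGI = concentration required for complete inhibition of growth.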
Legend:
Assay in all cases: NCI tumour cell line growth inhibition, 48 h
SW-620 colon = test system: SW-620 colon
M14 melanoma = test system: M14 melanoma
786-0 renal = test system: 786-0 renal
UACC-257 melanoma = test system: UACC-257 melanoma
MALME-3M melanoma = test system: MALME-3M melanoma
LOX IMVI melanoma = test system: LOX IMVI melanoma
HCT-15 colon = test system: HCT-15 colon
DU-145 prostate = test system: DU-145 prostate
HL-60(TB) leukemia = test system: HL-60(TB) leukemia
SK-MEL-2 melanoma = test system: SK-MEL-2 melanoma
BT-549 breast = test system: BT-549 breast

N#Cc1sc2c(c1OC(=O)c1ccc(C(F)(F)F)cc1)c(=O)n(-c1ccccc1)c(=S)n2-c1ccccc1
TGI (SW-620 colon): > 100 µM | TGI (M14 melanoma): 81.7 µM | TGI (786-0 renal): > 100 µM | TGI (UACC-257 melanoma): > 100 µM | TGI (MALME-3M melanoma): 84.4 µM | TGI (LOX IMVI melanoma): 59.9 µM | TGI (HCT-15 colon): 80.7 µM | TGI (DU-145 prostate): > 100 µM | TGI (HL-60(TB) leukemia): 46.1 µM

C[C@@H]1CCC2[C@@H](C)[C@@H](O[C@H]3O[C@@H]4O[C@@]5(C)CCC6[C@H](C)CCC([C@H]3C)[C@]64OO5)O[C@@H]3O[C@@]4(C)CCC1[C@@]23OO4 (some centres not stated)
TGI (SK-MEL-2 melanoma): > 25 µM | TGI (SW-620 colon): > 25 µM | TGI (M14 melanoma): > 25 µM | TGI (786-0 renal): > 25 µM | TGI (BT-549 breast): > 25 µM | TGI (UACC-257 melanoma): > 25 µM | TGI (LOX IMVI melanoma): > 25 µM | TGI (HCT-15 colon): > 25 µM | TGI (DU-145 prostate): > 25 µM | TGI (HL-60(TB) leukemia): > 5.22 µM

O[C@H]1[C@H](O)[C@@H](O)CN2CC[C@H](O)[C@H]12
TGI (SK-MEL-2 melanoma): > 100 µM | TGI (SW-620 colon): > 100 µM | TGI (UACC-257 melanoma): > 100 µM | TGI (MALME-3M melanoma): > 100 µM | TGI (LOX IMVI melanoma): > 100 µM | TGI (HCT-15 colon): > 100 µM | TGI (HL-60(TB) leukemia): > 39.8 µM

Cn1ncc2c(NCc3ccccc3)ncnc21
TGI (SW-620 colon): > 100 µM | TGI (786-0 renal): > 100 µM | TGI (BT-549 breast): > 100 µM | TGI (UACC-257 melanoma): > 100 µM | TGI (MALME-3M melanoma): > 100 µM | TGI (LOX IMVI melanoma): > 100 µM | TGI (HCT-15 colon): > 100 µM | TGI (DU-145 prostate): > 100 µM | TGI (HL-60(TB) leukemia): > 100 µM

CN(C)Cc1cc(C(=O)/C=C/c2ccc([N+](=O)[O-])cc2)cc(CN(C)C)c1O
TGI (SK-MEL-2 melanoma): 30.1 µM | TGI (SW-620 colon): 27.1 µM | TGI (M14 melanoma): 23.3 µM | TGI (786-0 renal): 15.2 µM | TGI (BT-549 breast): 37.1 µM | TGI (UACC-257 melanoma): 33.6 µM | TGI (LOX IMVI melanoma): 5.5 µM | TGI (HCT-15 colon): 25.1 µM | TGI (DU-145 prostate): 23 µM | TGI (HL-60(TB) leukemia): 5.46 µM

Cc1c2c(c(C)n1-c1ccccc1)C(=O)N(CCN1CCN(c3cccc(C(F)(F)F)c3)CC1)C2=O
TGI (SK-MEL-2 melanoma): > 100 µM | TGI (M14 melanoma): > 100 µM | TGI (786-0 renal): > 100 µM | TGI (BT-549 breast): > 100 µM | TGI (UACC-257 melanoma): > 100 µM | TGI (MALME-3M melanoma): > 100 µM | TGI (LOX IMVI melanoma): > 100 µM | TGI (HCT-15 colon): > 100 µM | TGI (DU-145 prostate): > 100 µM

Cc1cc(OP2(=O)NCc3ncccc3O2)ccc1Cl (configuration not stated)
TGI (SK-MEL-2 melanoma): > 100 µM | TGI (SW-620 colon): > 100 µM | TGI (M14 melanoma): > 100 µM | TGI (786-0 renal): > 100 µM | TGI (BT-549 breast): > 100 µM | TGI (UACC-257 melanoma): > 100 µM | TGI (LOX IMVI melanoma): > 100 µM | TGI (HCT-15 colon): > 100 µM | TGI (DU-145 prostate): > 100 µM

COc1cc(C=O)ccc1O
TGI (SW-620 colon): > 100 µM | TGI (M14 melanoma): > 100 µM | TGI (786-0 renal): > 100 µM | TGI (UACC-257 melanoma): > 100 µM | TGI (MALME-3M melanoma): > 100 µM | TGI (LOX IMVI melanoma): > 100 µM | TGI (HCT-15 colon): > 100 µM | TGI (DU-145 prostate): > 100 µM | TGI (HL-60(TB) leukemia): > 100 µM

O=C1NC(O)CCN1C1OC(CO)C(O)C1O (configuration not stated)
TGI (SK-MEL-2 melanoma): > 158 µM | TGI (SW-620 colon): > 250 µM | TGI (UACC-257 melanoma): > 250 µM | TGI (MALME-3M melanoma): > 250 µM | TGI (LOX IMVI melanoma): > 250 µM | TGI (HCT-15 colon): > 250 µM | TGI (HL-60(TB) leukemia): > 250 µM

COc1cc(C2c3cc4c(cc3[C@@H](Nc3ccccc3)C3COC(=O)[C@H]23)OCO4)cc(OC)c1O (some centres not stated)
TGI (SK-MEL-2 melanoma): 6.97 µM | TGI (SW-620 colon): > 42.9 µM | TGI (UACC-257 melanoma): 4.27 µM | TGI (MALME-3M melanoma): 8.65 µM | TGI (LOX IMVI melanoma): 3.38 µM | TGI (HCT-15 colon): 2.43 µM | TGI (HL-60(TB) leukemia): 1.09 µM

CCOC(=O)CNC(=O)NC12CC3CC(CC(C3)C1)C2
TGI (SK-MEL-2 melanoma): 372 µM | TGI (SW-620 colon): > 550 µM | TGI (UACC-257 melanoma): 477 µM | TGI (MALME-3M melanoma): 420 µM | TGI (LOX IMVI melanoma): > 550 µM | TGI (HCT-15 colon): > 550 µM | TGI (HL-60(TB) leukemia): 543 µM

COc1ccc(N2C(=O)C3c4[nH]c5cc(C)ccc5c4C4CCC(C(C)(C)C)CC4C3C2=O)cc1 (configuration not stated)
TGI (SK-MEL-2 melanoma): > 10 µM | TGI (SW-620 colon): > 10 µM | TGI (M14 melanoma): > 10 µM | TGI (MALME-3M melanoma): > 10 µM | TGI (LOX IMVI melanoma): > 10 µM | TGI (HCT-15 colon): > 10 µM | TGI (DU-145 prostate): > 10 µM | TGI (HL-60(TB) leukemia): > 10 µM

Clc1sc(Cl)c2c1[C@@H](Cl)C[C@@H]2Br
TGI (SK-MEL-2 melanoma): > 100 µM | TGI (SW-620 colon): > 100 µM | TGI (M14 melanoma): > 100 µM | TGI (786-0 renal): > 100 µM | TGI (BT-549 breast): > 100 µM | TGI (UACC-257 melanoma): > 100 µM | TGI (MALME-3M melanoma): > 100 µM | TGI (LOX IMVI melanoma): > 100 µM | TGI (HCT-15 colon): > 100 µM | TGI (DU-145 prostate): > 100 µM

COc1cc2c(cc1OCCCN1C(=O)c3cccc4cccc(c34)C1=O)N=C[C@@H]1CCCN1C2=O
TGI (SK-MEL-2 melanoma): > 100 µM | TGI (SW-620 colon): > 63 µM | TGI (M14 melanoma): > 100 µM | TGI (786-0 renal): 54.3 µM | TGI (BT-549 breast): > 100 µM | TGI (UACC-257 melanoma): > 100 µM | TGI (MALME-3M melanoma): 35.1 µM | TGI (LOX IMVI melanoma): > 100 µM | TGI (HCT-15 colon): > 77.9 µM | TGI (DU-145 prostate): > 100 µM

COC1OC2COC(c3ccccc3)OC2C(O)C1OC(=S)c1ccccc1 (configuration not stated)
TGI (SK-MEL-2 melanoma): > 100 µM | TGI (SW-620 colon): > 100 µM | TGI (M14 melanoma): > 100 µM | TGI (BT-549 breast): > 100 µM | TGI (UACC-257 melanoma): > 100 µM | TGI (MALME-3M melanoma): 71.6 µM | TGI (LOX IMVI melanoma): 21.4 µM | TGI (HCT-15 colon): > 100 µM | TGI (DU-145 prostate): > 100 µM

CO/N=C(/C(=O)OC)c1ccccc1COc1ccccc1C(F)(F)F
TGI (SK-MEL-2 melanoma): 73.2 µM | TGI (M14 melanoma): > 100 µM | TGI (786-0 renal): > 100 µM | TGI (BT-549 breast): > 100 µM | TGI (UACC-257 melanoma): 88.7 µM | TGI (MALME-3M melanoma): 47.2 µM | TGI (HCT-15 colon): > 100 µM | TGI (DU-145 prostate): > 100 µM | TGI (HL-60(TB) leukemia): 51.3 µM

C/C1=C\[C@H](C)C[C@H](C)OC(=O)[C@H](C)NC(=O)[C@@H](Cc2ccc(O)c(Br)c2)N(C)C(=O)[C@H](C)NC(=O)[C@@H](C)C1
TGI (SK-MEL-2 melanoma): 9.34 µM | TGI (SW-620 colon): > 25 µM | TGI (M14 melanoma): > 25 µM | TGI (BT-549 breast): 4.12 µM | TGI (UACC-257 melanoma): 14.8 µM | TGI (MALME-3M melanoma): 2.32 µM | TGI (LOX IMVI melanoma): 0.394 µM | TGI (HCT-15 colon): > 25 µM | TGI (DU-145 prostate): > 25 µM

COc1ccc2oc(=N)c(C(=O)Nc3ccccc3)cc2c1
TGI (SK-MEL-2 melanoma): 37.4 µM | TGI (SW-620 colon): 80.9 µM | TGI (M14 melanoma): > 100 µM | TGI (BT-549 breast): 43.8 µM | TGI (UACC-257 melanoma): > 100 µM | TGI (MALME-3M melanoma): 53.2 µM | TGI (LOX IMVI melanoma): > 100 µM | TGI (HCT-15 colon): > 100 µM | TGI (DU-145 prostate): > 100 µM

Cc1cc(C[C@H]2O[C@@H]3OC(C)(C)O[C@@H]3[C@H]3OC(C)(C)O[C@H]32)c2ccccc2n1
TGI (SK-MEL-2 melanoma): > 100 µM | TGI (SW-620 colon): > 100 µM | TGI (786-0 renal): > 100 µM | TGI (UACC-257 melanoma): > 100 µM | TGI (MALME-3M melanoma): > 100 µM | TGI (LOX IMVI melanoma): > 100 µM | TGI (HCT-15 colon): > 100 µM | TGI (DU-145 prostate): > 100 µM | TGI (HL-60(TB) leukemia): 51.5 µM

CCOC(=O)/C=C1/C(CCCOCc2ccccc2)C2CCCC23CC2(CCN13)OCCO2 (configuration not stated)
TGI (SK-MEL-2 melanoma): 36.9 µM | TGI (SW-620 colon): > 100 µM | TGI (UACC-257 melanoma): 53.9 µM | TGI (MALME-3M melanoma): 33.9 µM | TGI (LOX IMVI melanoma): 37.9 µM | TGI (HCT-15 colon): 51.5 µM | TGI (HL-60(TB) leukemia): 30 µM

CN1Cc2c(nc(-c3ccccc3)c[n+]2[O-])N(C)C1
TGI (SK-MEL-2 melanoma): > 100 µM | TGI (SW-620 colon): > 100 µM | TGI (M14 melanoma): > 100 µM | TGI (786-0 renal): > 100 µM | TGI (UACC-257 melanoma): > 100 µM | TGI (MALME-3M melanoma): > 100 µM | TGI (LOX IMVI melanoma): > 100 µM | TGI (HCT-15 colon): > 100 µM | TGI (HL-60(TB) leukemia): > 100 µM

C[C@@H]1CC[C@H]2[C@H]1[C@H]1[C@@H](CC[C@]2(C)N=C=S)C1(C)C
TGI (SK-MEL-2 melanoma): 43.9 µM | TGI (SW-620 colon): 36 µM | TGI (M14 melanoma): 78.1 µM | TGI (BT-549 breast): 39.1 µM | TGI (UACC-257 melanoma): 67.4 µM | TGI (MALME-3M melanoma): 52.8 µM | TGI (LOX IMVI melanoma): > 100 µM | TGI (HCT-15 colon): 64.6 µM | TGI (DU-145 prostate): 49.6 µM | TGI (HL-60(TB) leukemia): 54.3 µM

Reference: PubChem BioAssay (NCI)
